Where two headings read alike, the source gives them in different places.
Legend:
HT29 [1] = test: tumor cell growth (CTG), HT29
PC3 [2] = test: tumor cell growth (CTG), PC3
HT29 [3] = test: Thymidine (Thy) 96 well, HT29; conditions: read-out: IC50 (uM), HT29 (Colon Cancer)
PC3 [4] = test: [3H]-Thymidine incorporation in 96-well plates (Thy), PC3; conditions: read-out: IC50 (uM), PC3 (Prostrate Cancer)
U87 = test: tumor cell growth, U87; conditions: read-out: IC50 (uM), U87 (CNS); Table 6
H460 = test: tumor cell growth (CTG), H460 / NCIH460
A549 = test: tumor cell growth, A549; conditions: read-out: IC50 (uM), A549 (NSCLC); Table 6
HEPG2 = test: tumor cell growth, HEPG2; conditions: read-out: IC50 (uM), HEPG2 (Liver C); Table 6
LN229 = test: [3H]-Thymidine incorporation in 96-well plates (Thy), LN229; conditions: read-out: IC50 (uM), LN229 (CNS Cancer)
GL261 = test: tumor cell growth, GL261; conditions: read-out: IC50 (uM), GL261 (CNS); Table 6
HEP3B [5] = test: [3H]-Thymidine incorporation in 96-well plates (Thy), HEP3B; conditions: read-out: IC50 (uM), HEP3B (Liver Cancer)
HEP3B [6] = test: tumor cell growth (CTG), HEP3B
U118 = test: tumor cell growth, U118; conditions: read-out: IC50 (uM), U118 (CNS); Table 6
PANC-1 = test: tumor cell growth, PANC-1; conditions: read-out: IC50 (uM), PANC-1 (Pancreatic C); Table 6
A172 = test: tumor cell growth, A172; conditions: read-out: IC50 (uM), A172 (CNS); Table 6
MCF7 = test: tumor cell growth, MCF7; conditions: read-out: IC50 (uM), MCF7 (Breast C); Table 6
LN-229 = test: tumor cell growth (CTG), LN-229 / LN229
LN-18 = test: tumor cell growth, LN-18; conditions: read-out: IC50 (uM), LN-18 (CNS); Table 6
HCT116 [7] = test: Thymidine (Thy) 96 well, HCT116; conditions: read-out: IC50 (uM), HCT116 (Colon Cancer)
U251 = test: tumor cell growth, U251; conditions: read-out: IC50 (uM), U251 (CNS); Table 6
GPR55 = GPR55 (Homo sapiens, UniProt Q9Y2T6); test: Cellular uptake of TocriFluor T1117 in PANC-1 cells; conditions: MNF 1 μM
GPR55, sequence (Q9Y2T6 whole entry): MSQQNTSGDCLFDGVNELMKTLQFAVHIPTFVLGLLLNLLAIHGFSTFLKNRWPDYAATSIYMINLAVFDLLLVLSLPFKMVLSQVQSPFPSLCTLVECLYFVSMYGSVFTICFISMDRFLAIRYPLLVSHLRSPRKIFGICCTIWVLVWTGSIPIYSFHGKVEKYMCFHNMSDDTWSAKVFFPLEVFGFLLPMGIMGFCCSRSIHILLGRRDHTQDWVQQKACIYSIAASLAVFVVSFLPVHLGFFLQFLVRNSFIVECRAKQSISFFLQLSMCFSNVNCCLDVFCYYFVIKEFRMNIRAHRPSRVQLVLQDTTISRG
Procedure: Cellular uptake of TocriFluor T1117, a fluorescently labeled GPR55 agonist Cells were grown in 35-mm glass bottom culture dishes (MatTek Corp., Ashland, Mass., USA) for 48 hours until reaching ˜70% confluence. […] Cells were imaged with a Zeiss LSM 710 confocal microscope equipped with a temperature-controlled and humidified CO2 chamber and a definite focus system. […] The time-series function of the Zeiss Zen software was used to collect images with a 40×1.3 NA objective every 30 s for up to one hour, with all confocal settings remaining the same throughout the studies. Still images, movies and fluorescent intensity quantitation were obtained from these series using the Zeiss Zen software. Studies were repeated at least two to three times.

MDAMB231 = test: tumor cell growth, MDAMB231; conditions: read-out: IC50 (uM), MDAMB231 (Breast C); Table 6
HCT116 [8] = test: tumor cell growth (CTG), HCT116
NCIH460 = test: Thymidine (Thy) 96 well, NCIH460; conditions: read-out: IC50 (uM), NCIH460 (NSCLC)
Du-145 = test: tumor cell growth, Du-145; conditions: read-out: IC50 (uM), Du-145 (Prostate C); Table 6

COc1ccc(C[C@@H](C)NC[C@H](O)c2cc(O)cc(O)c2)c2ccccc12 [(R,R′)-MNF, (R,R′)-4′-methoxy-1-naphthylfenoterol]
IC50 (HT29 [1]; read-out: IC50 (uM), HT29 (Colon C), Table 6): 10.7 µM | IC50 (HT29 [1]; read-out: IC50 (uM), HT29 (Colon Cancer), 96 well CTG 1 day treatment): 30.4 µM | IC50 (HT29 [1]; read-out: IC50 (uM), HT29 (Colon Cancer), 96 well CTG 2 days treatment): 11.7 µM | IC50 (HT29 [1]; read-out: IC50 (uM), HT29 (Colon Cancer), 384well CTG 3 days treatment −1): 10.7 µM | IC50 (PC3 [2]; read-out: IC50 (uM), PC3 (Prostate C), Table 6): 28.1 µM | IC50 (PC3 [2]; read-out: IC50 (uM), PC3 (Prostrate Cancer), 96 well CTG 1 day treatment): 34.5 µM | IC50 (PC3 [2]; read-out: IC50 (uM), PC3 (Prostrate Cancer), 96 well CTG 2 days treatment): 20.4 µM | IC50 (PC3 [2]; read-out: IC50 (uM), PC3 (Prostrate Cancer), 384well CTG 3 days treatment −1): 28.1 µM | IC50 (HT29 [3]; 96 well Thy 2 days treatment): 19.6 µM | IC50 (HT29 [3]; 96 well Tye 1 day treatment): 13 µM | IC50 (PC3 [4]; 96 well Thy 2 days treatment): 10.8 µM | IC50 (PC3 [4]; 96 well Tye 1 day treatment): 11 µM | IC50 (U87): 25.7 µM | IC50 (H460; read-out: IC50 (uM), H460 (NSCLC), Table 6): 11.6 µM | IC50 (H460; read-out: IC50 (uM), NCIH460 (NSCLC), 96 well CTG 1 day treatment): 38.9 µM | IC50 (H460; read-out: IC50 (uM), NCIH460 (NSCLC), 96 well CTG 2 days treatment): 15.4 µM | IC50 (H460; read-out: IC50 (uM), NCIH460 (NSCLC), 384well CTG 3 days treatment −1): 11.6 µM | IC50 (H460; read-out: IC50 (uM), NCIH460 (NSCLC), 384well CTG 3 days treatment −2): 17.7 µM | IC50 (A549): 23.1 µM | IC50 (HEPG2): 28.8 µM | IC50 (LN229; 96 well Thy 2 days treatment): 10.4 µM | IC50 (LN229; 96 well Tye 1 day treatment): 9.64 µM | IC50 (GL261): 21.3 µM | IC50 (HEP3B [5]; 96 well Thy 2 days treatment): 10 µM | IC50 (HEP3B [5]; 96 well Tye 1 day treatment): 10.7 µM | IC50 (HEP3B [6]; read-out: IC50 (uM), HEP3B (Liver C), Table 6): 14.7 µM | IC50 (HEP3B [6]; read-out: IC50 (uM), HEP3B (Liver Cancer), 96 well CTG 1 day treatment): 28.3 µM | IC50 (HEP3B [6]; read-out: IC50 (uM), HEP3B (Liver Cancer), 96 well CTG 2 days treatment): 13.5 µM | IC50 (HEP3B [6]; read-out: IC50 (uM), HEP3B (Liver Cancer), 384well CTG 3 days treatment −1): 14.7 µM | IC50 (HEP3B [6]; read-out: IC50 (uM), HEP3B (Liver Cancer), 384well CTG 3 days treatment −2): 12.1 µM | IC50 (U118): 37 µM | IC50 (PANC-1): 33.4 µM | IC50 (A172): 30.5 µM | IC50 (MCF7): 37.2 µM | IC50 (LN-229; read-out: IC50 (uM), LN229 (CNS Cancer), 96 well CTG 1 day treatment): 29.3 µM | IC50 (LN-229; read-out: IC50 (uM), LN229 (CNS Cancer), 96 well CTG 2 days treatment): 15.7 µM | IC50 (LN-229; read-out: IC50 (uM), LN229 (CNS Cancer), 384well CTG 3 days treatment −1): 26.8 µM | IC50 (LN-229; read-out: IC50 (uM), LN-229 (CNS), Table 6): 26.8 µM | IC50 (LN-18): 29.7 µM | IC50 (HCT116 [7]; 96 well Thy 2 days treatment): 11 µM | IC50 (HCT116 [7]; 96 well Tye 1 day treatment): 23.8 µM | IC50 (U251): 26.7 µM | T1117 incorporation (GPR55): potent inhibitor of T1117 incorporation in PANC-1 cells | IC50 (MDAMB231): 33.2 µM | IC50 (HCT116 [8]; read-out: IC50 (uM), HCT116 (Colon C), Table 6): 12.9 µM | IC50 (HCT116 [8]; read-out: IC50 (uM), HCT116 (Colon Cancer), 96 well CTG 1 day treatment): 19 µM | IC50 (HCT116 [8]; read-out: IC50 (uM), HCT116 (Colon Cancer), 96 well CTG 2 days treatment): 10.5 µM | IC50 (HCT116 [8]; read-out: IC50 (uM), HCT116 (Colon Cancer), 384well CTG 3 days treatment −1): 12.9 µM | IC50 (HCT116 [8]; read-out: IC50 (uM), HCT116 (Colon Cancer), 384well CTG 3 days treatment −2): 12.2 µM | IC50 (NCIH460; 96 well Thy 2 days treatment): 21 µM | IC50 (NCIH460; 96 well Tye 1 day treatment): 25.1 µM | IC50 (Du-145): 34.8 µM
